Laboratory results reported in patent US20240016805A1, “THERAPEUTIC METHODS AND COMPOSITIONS FOR TREATING PANCREATIC CANCER USING DEVIMISTAT” (Cornerstone Pharmaceuticals, Inc., priority 2020, published 2024).

How the values were obtained:
[1] = Animal studies of IV administration of devimistat (acute toxicity, local inflammation); format: in vivo
Procedure: Devimistat must be administered IV, via an IV catheter that is free flowing and free of air in the dead space of the IV catheter, to minimize vascular irritation, inflammation and acute toxicity of devimistat (Study NCL-049). […] To avoid local reactions at and around the site of administration, devimistat must be administered via a central venous catheter.
Devimistat must not be administered as a bolus, but by infusion, at a rate of ˜4 mL/min, via a central venous catheter with D5W running at a rate of about 125-150 mL/hr. This is to minimize potential acute toxicity of devimistat, according to animal studies.

[2] = test system: metastatic pancreatic cancer; settings: cited from earlier work
[3] = Compatibility of devimistat with IV infusion sets, IV bags and syringes; format: physicochemical
Procedure: Therefore, DEHP-containing IV infusion sets, IV bags or syringes should not be used in mixing or administration of devimistat.
A compatibility study has been conducted showing that devimistat is compatible with 4 commonly used IV infusion sets. Therefore, these 4 types of IV infusion sets, and IV infusion sets that are made with the same materials, can be used to administer devimistat.
Compatibility studies have shown that devimistat drug product (50 mg/mL), and drug product diluted with D5W to various concentrations (1.6-25 mg/mL) are compatible with various types of syringes, as listed below. Therefore, any of these types of syringes, and syringes that are made with the same materials, can be used to administer devimistat. Also, glass syringes can also be used, since glass (such as glass containers) is compatible with devimistat drug product. • Norm-Ject, polyethylene barrel, polyethylene plunger, latex free (Henke Sass Wolf GMBH) syringes • Becton Dickinson syringes • Terumo syringes • Monoject syringes • Glass syringes

[4] = Adverse events and potential risks attributed to the study drugs; format: in vivo; settings: expected adverse event
Text: Probably related: Creatinine (expected Adverse Event).
Attribution is the relationship between an adverse event or serious adverse event and the study drug. Attribution will be assigned as follows: • Definite—The AE is clearly related to the study drug. • Probable—The AE is likely related to the study drug. • Possible—The AE may be related to the study drug. • Unlikely—The AE is doubtfully related to the study drug. • Unrelated—The AE is clearly NOT related to the study drug.

[5] = test system: advanced pancreatic cancer; settings: gemcitabine vs. fluorouracil (Burris 1997); cited from earlier work
metastatic PDA = settings: patients with metastatic PDA (Von Hoff 2013); cited from earlier work
[6] = test system: metastatic pancreatic cancer; settings: metastatic pancreatic cancer (Conroy 2011); cited from earlier work
[7] = 18 patients who received the MTD, with mFOLFIRINOX

| SMILES | effect of accidental co-administration of extra air in the dead space of IV catheters ([1]; animal studies, IV administration) | effect of accidental leakage into the perivascular space during IV administration ([1]; in vivo, iv) | Grade 1-2 toxicity observed [2, 7] | common grade 3/4 toxicities [2, 7] | specific risks attributed beyond the toxicities associated with mFOLFIRINOX ([2]; pilot Phase 1 study) | compatibility with IV infusion sets ([3]; 4 commonly used IV infusion sets (PVC, latex, polyethylene)) | leaching of DEHP ([3]; DEHP-containing IV infusion sets and IV bags) | adverse events probably related [4] | overall survival [5] [months] | overall survival (metastatic PDA) [months] | progression free survival (PFS) (metastatic PDA) [months] | PFS [6] [months] | overall survival [6] [months] | partial response rate [6] [%] |
| --- | --- | --- | --- | --- | --- | --- | --- | --- | --- | --- | --- | --- | --- | --- |
| O=C(O)CCCCC(CCSCc1ccccc1)SCc1ccccc1 (stereo not drawn) [devimistat, 6,8-bis(benzylsulfanyl)octanoic acid] | potential to induce acute toxicity | can induce significant local inflammation | sensory neuropathy | hypokalemia, diarrhea, abdominal pain, hyperglycemia, peripheral neuropathy, neutropenia, lymphopenia, anemia, and thrombocytopenia | no specific risks that have been definitively observed and attributed to devimistat | compatible | can cause leaching of DEHP | Creatinine |  |  |  |  |  |  |
| O=c1[nH]cc(F)c(=O)[nH]1 [fluorouracil, 5-fluoro-1H-pyrimidine-2,4-dione] |  |  |  |  |  |  |  |  | 4.4 |  |  |  |  |  |
| Nc1ccn([C@@H]2O[C@H](CO)[C@@H](O)C2(F)F)c(=O)n1 [gemcitabine] |  |  |  |  |  |  |  |  | 5.6 | 6.7 | 3.7 | 3.3 | 6.8 | 9 |
